This note sets out measurements from patent US7091198B1, “2,5-disubstituted pyrimidine derivatives” (Bayer HealthCare AG, priority 2002, dated 2006).

This assay relates to cGMP in primary cortical neurons. The assay can be described thus: Increase of cGMP in primary cortical neurons. The class given is cell-based. The conditions noted are these: Primary cortical neuron, 20 min; rat embryonic primary cortical neurons; 20 min incubation at 37° C. with IBMX; triplicate determination; more than 2-fold increase compared with the control; read-out: concentration leading to a statistically significant increase in cGMP. Here is the method: Increase of cGMP in Primary Cortical Neurons
Rat embryos (embryonic day 17–19) are decapitated, and the cerebrum is removed and incubated with 5 ml of papain solution and 250 μl of DNAse (papain kit from Cell-System) at 37° C. for 30 min, homogenized using a Pasteur pipette and centrifuged at 1200 rpm for 5 min. The supernatant is removed, the cell pellet resuspended (in 2.7 ml of EBSS [Earl's balanced salt solution], 300 μl of ovomucoid/albumin (conc.) solution, 150 μl of DNAse; papain kit from Cell-System), layered over 5 ml of ovomucoid/albumin solution and centrifuged at 700 rpm for 6 min. The supernatant is removed, the cells are resuspended in cultivation medium (Gibco neurobasal medium, B27 Supplement 50×1 ml/100 ml, 2 mM L-glutamine), counted (approx. 150 000 cells/well) and plated out on poly-D-lysine-coated 96-well plates (Costar) with 200 μl/well. After 6–7 days at 37° C. (5% CO2), the neurons are freed of culture medium and washed once with assay buffer (154 mM NaCl, 5.6 mM KCl, 2.3 mM CaCl2.2H2O, 1 mM MgCl2, 5.6 mM glucose, 8.6 mM HEPES (4-(2-hydroxyethyl)piperazine-1-ethanesulfonic acid), pH=7.4). 100 μl/well test substance are dissolved in assay buffer and then 100 μl/well IBMX (3-isobutyl-1-methylxanthine; dissolved in 50 mM ethanol, diluted with assay buffer to a final concentration of 100 μM) are added. After incubation at 37° C. for 20 min, the assay buffer is replaced by 200 μl/well of lysis buffer (cGMP EIA RPN 226 from Amersham Pharmacia Biotech), and the cGMP content of the lystates is determined using an EIA assay kit.
The concentrations indicated in Table 1 lead to a statistically significant increase in cGMP (triplicate determination; more than 2-fold increase compared with the control)

For the compound `CO[C@H]1CN(c2cnc(-c3nn(Cc4ccccc4F)c4ncccc34)nc2)C[C@@H]1OC` [Example 6], the minimal effective concentration stood at 0.27 µM.
With `Fc1ccccc1Cn1nc(-c2ncc(N3CC4CNCC(C3)O4)cn2)c2cccnc21` [Example 10] the figure was 1.2 µM; with `O=C1CCCCC1c1cnc(-c2nn(Cc3ccccc3F)c3ncccc23)nc1` (centres unmarked) [Example 13, 2-{2-[1-(2-Fluorobenzyl)-1H-pyrazol[3,4-b]pyridin-3-yl]-5-pyrimidinyl}-cyclohexanone], 0.27 µM; with `Fc1ccccc1Cn1nc(-c2ncc(N3CC4CCC(C3)O4)cn2)c2cccnc21` [Example 19, 1-(2-Fluorobenzyl)-3-[5-(8-oxa-3-azabicyclo[3.2.1]oct-3-yl)-2-pyrimidinyl]-1H-pyrazolo[3,4-b]pyridine], 0.27 µM.
In the case of `CO[C@H]1CCN(c2cnc(-c3nn(Cc4ccccc4F)c4ncccc34)nc2)C1` [Example 20, 1-(2-Fluorobenzyl)-3-{5-[(3S)-3-methoxy-1-pyrrolidinyl]-2-pyrimidinyl}-1 H-pyrazolo[3,4-b]pyridine] it was 0.27 µM.
Take `COc1ccccc1-c1cnc(-c2nn(Cc3ccccc3F)c3ncccc23)nc1` [Example 27]: the minimal effective concentration turned out to be 0.9 µM.
With `Fc1ccccc1Cn1nc(-c2ncc(-c3cn[nH]c3C3CC3)cn2)c2cccnc21` [Example 36, 3-[5-(5-Cyclopropyl-1H-pyrazol-4-yl)-2-pyrimidinyl]-1-(2-fluorobenzyl)-1 H-pyrazolo[3,4-b]pyridine] the figure was 0.27 µM; with `O=C1CCN(c2cnc(-c3nn(Cc4ccccc4F)c4ncccc34)nc2)C1` [Example 38, 1-{2-[1-(2-Fluorobenzyl)-1H-pyrazol[3,4-b]pyridin-3-yl]-5-pyrimidinyl}-3-pyrrolidinone], 0.27 µM.
